In BindingDB's records for doi:10.7270/Q2S46Q8P (The Scripps Research Institute Molecular Screening Center, 2007) one finds IC50 data, which are given here for 42 molecules.

The first test deals with T1, 5-hydroxytryptamine receptor 1A (Homo sapiens, UniProt P08908).
T1 sequence (P08908 whole entry): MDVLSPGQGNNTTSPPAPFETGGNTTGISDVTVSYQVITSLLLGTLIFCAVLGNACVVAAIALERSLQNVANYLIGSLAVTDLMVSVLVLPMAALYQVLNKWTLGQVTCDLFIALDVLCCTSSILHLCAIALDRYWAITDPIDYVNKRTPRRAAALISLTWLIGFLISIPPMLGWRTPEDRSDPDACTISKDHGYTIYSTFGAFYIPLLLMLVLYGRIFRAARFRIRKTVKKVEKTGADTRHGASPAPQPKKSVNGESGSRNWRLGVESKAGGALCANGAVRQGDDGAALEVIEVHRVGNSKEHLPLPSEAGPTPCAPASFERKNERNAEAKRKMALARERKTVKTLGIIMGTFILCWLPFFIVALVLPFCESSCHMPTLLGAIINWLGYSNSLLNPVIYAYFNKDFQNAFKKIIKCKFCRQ
In words: serotonin 1A receptor activation, dose response (AID 718). The settings on record: inactive by the depositor's call; pH 7.4; 23 °C.
Broadly, the IC50 is the concentration that inhibits the measured activity by half. The molecule `CC(C)=CCC(C)(C)CNC(=O)NC1CCCCC1` had an IC50 of 40 µM.

Turning to `CCCOCCOC(=O)c1[nH]c2c(c1C)C(=O)CC(c1cc(OC)ccc1OC)C2` (configuration not stated), 40 µM corresponded to half-maximal inhibition (IC50).

As to `COc1cc2c(cc1OC)-c1cc(N3CCCc4ccccc43)nc(=O)n1CC2` [2-(3,4-dihydro-2H-quinolin-1-yl)-9,10-dimethoxy-6,7-dihydropyrimido[6,1-a]isoquinolin-4-one], inhibition was half-maximal at 25 µM (IC50). Compared with the last molecule, the IC50 is about 1.6-fold lower.

With `CCOc1ccc(C2=Nn3c(nnc3-c3ccccc3OC)SC2)cc1` [6-(4-ethoxyphenyl)-3-(2-methoxyphenyl)-7H-[1,2,4]triazolo[3,4-b][1,3,4]thiadiazine], the IC50 is 25 µM.

`COC(=O)Nc1nc2ccc(Sc3ccccc3)cc2[nH]1` [FENBENDAZOLE] showed an IC50 of 40 µM.

Regarding `CCn1c(=O)c(C(=O)Nc2nc3ccccc3[nH]2)c(O)c2ccccc21` [MLS000027148], the midpoint of inhibition, the IC50, lay at 40 µM.

As to `N#C/C(=C/c1ccc(N2CCCCCC2)o1)c1ccc(F)cc1` [MLS000051438], inhibition was half-maximal at 10.9 µM (IC50).

Turning to `CCOc1cccc(-c2nnc3n2N=C(c2cc(OC)ccc2OC)CS3)c1` [MLS000081451], the IC50 was 22.2 µM.

Molecule `COCCOC(=O)c1[nH]c2c(c1C)C(=O)CC(c1ccccc1)C2` (configuration not stated) [SMR000025505] registered an IC50 of 40 µM. Compared with the last molecule, the IC50 is about 1.8-fold higher.

`CCCOc1ccc2nc(NC(=O)OC)[nH]c2c1` [SMR000058208]: the midpoint of inhibition, the IC50, lay at 40 µM.

For `CN(C)c1nc(OCCNC(=O)COc2ccc(Cl)cc2Cl)nc(N2CCCCC2)n1` [SMR000072558], the concentration for half-maximal inhibition (IC50) amounted to 40 µM.

For the molecule `COc1ccc(C2N(c3ccc(F)cc3)C(=O)C3CCCN32)cc1` (configuration not stated) [SMR000094164], inhibition was half-maximal at 40 µM (IC50).

The same test, now with this note: pH 7.4; 23 °C.
Molecule `CCN(CC)c1ccc2c(Cl)c(Br)c(=O)oc2c1` returned a half-inhibitory concentration (IC50) of 2.3 µM.

Consider `CCC(NC(=O)Nc1nnc(C(F)(F)F)s1)(C(F)(F)F)C(F)(F)F`, for which the IC50 was 6.92 µM.

With `O=C(Nc1ccc(-c2nc3ncccc3o2)cc1)c1ccc(Br)o1`, the IC50 was determined as 8.32 µM.

The molecule `O=S1(=O)C=C(Sc2nnc(-c3ccccc3)o2)c2ccccc21` yielded an IC50 of 2.48 µM.

`OCC12C=CC(O1)c1c2c(O)n(-c2ccc(-c3ccccc3)cc2)c1O` (configuration not stated): the IC50 worked out at 11.6 µM. This IC50 is about 4.7-fold higher than that of the molecule before.

`CCn1nc(-c2ccccc2)nc2c(=O)n(C)c(=O)nc1-2` [1-Ethyl-6-methyl-3-phenyl-1H-pyrimido[5,4-e][1,2,4]triazine-5,7-dione] gave a 50% inhibitory concentration (IC50) of 0.581 µM.

With `Cn1c(-c2c(N)n(C3CCCC3)c3nc4ccccc4nc23)nc2ccccc21` [1-cyclopentyl-3-(1-methyl-2-benzimidazolyl)-2-pyrrolo[3,2-b]quinoxalinamine], it took 2.38 µM to reach half-maximal inhibition (IC50).

Regarding `CCn1nc(-c2cccs2)nc2c(=O)n(C)c(=O)nc1-2` [1-ethyl-6-methyl-3-thiophen-2-yl-pyrimido[5,4-e][1,2,4]triazine-5,7-dione], inhibition was half-maximal at 0.421 µM (IC50).

Turning to `COc1ccc(-n2nnnc2S(=O)(=O)CC(=O)N2CCCCC2)cc1` [2-[1-(4-methoxyphenyl)tetrazol-5-yl]sulfonyl-1-piperidin-1-ylethanone], half-maximal inhibition (IC50) required 2.6 µM. Against the preceding molecule, the IC50 is about 6.2-fold higher.

Take `N#CCCS(=O)(=O)c1nnnn1-c1ccccc1` [3-(1-phenyltetrazol-5-yl)sulfonylpropanenitrile]: half-maximal inhibition (IC50) was put at 2.9 µM. The IC50 values of the last two molecules are within 1.5-fold of each other.

Consider `COc1ccc(-c2cc(C(F)(F)F)nc(S(C)(=O)=O)n2)cc1OC` [4-(3,4-dimethoxyphenyl)-2-methylsulfonyl-6-(trifluoromethyl)pyrimidine], for which the half-maximal inhibitory concentration (IC50) was found to be 3.59 µM.

Molecule `COc1cccc(N2CCN(c3ncnc4c3[nH]c3ccccc34)CC2C)c1` (configuration not stated) [4-[4-(3-methoxyphenyl)-3-methyl-1-piperazinyl]-5H-pyrimido[5,4-b]indole] showed a 50% inhibitory concentration (IC50) of 3.31 µM.

Molecule `Cc1ccc(S(=O)(=O)Nc2cccc3ncccc23)s1` [5-methyl-N-quinolin-5-ylthiophene-2-sulfonamide] came in with a concentration for half-maximal inhibition (IC50) of 1.1 µM.

In turn, `Cc1ccc(-n2nc3c([n+]2[O-])CCc2c-3n[o+]n2[O-])cc1` [7-(4-methylphenyl)-3,6-dioxido-4,5-dihydrotriazolo[4,5-e][2,1,3]benzoxadiazole-3,6-diium] had a half-inhibitory concentration (IC50) of 3.26 µM.

Take `COc1cccc(N2CCN(c3ncnc4c3[nH]c3ccc(F)cc34)CC2C)c1` (configuration not stated) [8-fluoranyl-4-[4-(3-methoxyphenyl)-3-methyl-piperazin-1-yl]-5H-pyrimido[5,4-b]indole]: the 50% inhibitory concentration (IC50) is 0.866 µM.

`COc1ccccc1-c1nnc2n1N=C(c1ccc(O)c(O)c1)CS2` [(4E)-4-[3-(2-methoxyphenyl)-5H-[1,2,4]triazolo[3,4-b][1,3,4]thiadiazin-6-ylidene]-2-oxidanyl-cyclohexa-2,5-dien-1-one] returned an IC50 of 40 µM.

For the molecule `CC(=O)Nc1cc(OC(C)=O)c2nonc2c1OC(C)=O` [Acetic acid 7-acetoxy-5-acetylamino-benzo[1,2,5]oxadiazol-4-yl ester], 1.78 µM corresponded to half-maximal inhibition (IC50). Against the preceding molecule, the IC50 is about 22-fold lower.

For the molecule `CS(=O)(=O)c1nc(-c2ccccc2)cc(C(F)(F)F)n1` [MLS000044644], the IC50 is 2.28 µM.

The molecule `CS(=O)(=O)c1nc(-c2cccs2)cc(C(F)(F)F)n1` [MLS000044645] displayed an IC50 of 2.44 µM.

`CS(=O)(=O)c1nc(-c2ccco2)cc(C(F)(F)F)n1` [MLS000044646]: it took 3.3 µM to reach half-maximal inhibition (IC50). This IC50 and that of the molecule before are within 1.5-fold of each other.

`COc1ccc(-n2c(O)cc(NCc3ccncc3)c2O)cc1` [MLS000099014] came in with an IC50 of 40 µM.

Take `CC(=O)Oc1ccc(-n2c(O)c3c(c2O)C2(C)C=CC3(C)O2)cc1` [MLS000107813]: 7.33 µM corresponded to half-maximal inhibition (IC50).

With `O=C(Nc1ccc(N2CCOCC2)cc1)Nc1ccc2nc(-c3ccco3)c(-c3ccco3)nc2c1` [N-(2,3-di-2-furyl-6-quinoxalinyl)-N'-[4-(4-morpholinyl)phenyl]urea], the midpoint of inhibition, the IC50, lay at 2.29 µM. Against the preceding molecule, the IC50 is about 3.2-fold lower.

In turn, `COc1cccc(N2CCN(c3ncnc4c3cnn4-c3ccc(C)cc3C)CC2)c1` [SMR000017007] showed a half-maximal inhibitory concentration (IC50) of 4.78 µM.

Turning to `CCCc1nnc2n1N=C(c1ccc(OC)c(OC)c1)CS2` [SMR000057783], the IC50 amounted to 40 µM.

In turn, `Clc1ccc(-n2nnnc2Sc2ncnc3sccc23)cc1` [SMR000066808] gave a half-maximal inhibitory concentration (IC50) of 4.85 µM.

Regarding `COc1cc(NS(=O)(=O)c2ccc(C)cc2)c2ncccc2c1` [SMR000071147], 0.823 µM corresponded to half-maximal inhibition (IC50). This IC50 is about 5.9-fold lower than that of the molecule before.

In turn, `COc1cc2c(cc1OC)C1=C(C#N)CC=C(NS(=O)(=O)c3ccccc3)N1CC2` [SMR000092093] gave a half-inhibitory concentration (IC50) of 40 µM.

As for `CSc1ccccc1NC=C1C(=O)CC(C)(C)CC1=O` [SMR000111352], the IC50 was 1.88 µM.

In turn, `COC(=O)/C(=C1/Oc2cc(C)oc(=O)c2S1)C(F)(F)F` [methyl (2E)-3,3,3-tris(fluoranyl)-2-(6-methyl-4-oxidanylidene-[1,3]oxathiolo[4,5-c]pyran-2-ylidene)propanoate] returned a 50% inhibitory concentration (IC50) of 1.24 µM.
